SMILES strings stand for the structures. Calls of active or inactive are those of the source. The rule behind the calls is not given here.

One assay deals with T1, Replicase polyprotein 1a (Severe acute respiratory syndrome-related coronavirus, UniProt P0C6U8).
Conditions: not given
For orientation: IC50 means the concentration that inhibits the measured activity by half. On to `CC(C)C1=Cc2ccc3c(c2C(=O)C1=O)CCCC3(C)C` [MILTIRONE], for which the IC50 was found to be 78.9 µM.

Compound `Cc1coc2c1C(=O)C(=O)c1c-2ccc2c1CCCC2(C)C` [TANSHINONE IIA] yielded an IC50 of 17.1 µM.

Compound `Cc1cccc2c3c(ccc12)C1=C(C(=O)C3=O)[C@@H](C)CO1` [DIHYDROTANSHINONE I] gave an IC50 of 10.7 µM.

The target in another assay is Replicase polyprotein 1a (Severe acute respiratory syndrome-related coronavirus) (UniProt P0C6U8).
Conditions: not given
The inhibition is the percentage by which the read-out fell short of the control. As for `Cc1coc2c1C(=O)C(=O)c1c-2ccc2c1CCCC2(C)C` [TANSHINONE IIA], the inhibition result is “Active”.

In the case of `Cc1cccc2c3c(ccc12)C1=C(C(=O)C3=O)[C@@H](C)CO1` [DIHYDROTANSHINONE I], the inhibition result was “Active”.

Another assay shares this target. As to conditions: 200 uM.
Consider `O=C(/C=C/c1cc(O)cc2c1[C@H](C(O)O[C@H](Cc1ccc(O)c(O)c1)C(=O)O)[C@@H](c1ccc(O)c(O)c1)O2)O[C@H](Cc1ccc(O)c(O)c1)C(=O)O` (stereo partly drawn), for which the inhibition was found to be 30%.

A further assay has the same target.
Conditions: not given
This is another data set of the same source.
In the case of `CC(C)C1=Cc2ccc3c(c2C(=O)C1=O)CCCC3(C)C` [MILTIRONE], the inhibition entry is “Active”.

Take `Cc1coc2c1C(=O)C(=O)c1c-2ccc2c1CCCC2(C)C` [TANSHINONE IIA]: the inhibition result was “Active”.

Turning to `Cc1cccc2c3c(ccc12)C1=C(C(=O)C3=O)[C@@H](C)CO1` [DIHYDROTANSHINONE I], the inhibition result is “Active”.

A further assay shares this target. As to conditions: 200 uM. This is another data set of the same source.
As for `Cc1coc2c1C(=O)C(=O)c1c-2ccc2c1CCCC2(C)C` [TANSHINONE IIA], the inhibition entry was “inactive”.

Another assay shares this target.
Conditions: not given
This is another data set of the same source.
Consider `CC(C)C1=Cc2ccc3c(c2C(=O)C1=O)CCCC3(C)C` [MILTIRONE], for which the inhibition result is “Dose-dependent effect”.

`Cc1coc2c1C(=O)C(=O)c1c-2ccc2c1CCCC2(C)C` [TANSHINONE IIA]: the inhibition entry is “Dose-dependent effect”.

On to `Cc1cccc2c3c(ccc12)C1=C(C(=O)C3=O)[C@@H](C)CO1` [DIHYDROTANSHINONE I], for which the inhibition result was “Dose-dependent effect”.

For a further assay, the target named is T1, Replicase polyprotein 1a.
Conditions: not given
This is another data set of the same source.
`CC(C)C1=Cc2ccc3c(c2C(=O)C1=O)CCCC3(C)C` [MILTIRONE] displayed an IC50 of 21.1 µM.

`Cc1coc2c1C(=O)C(=O)c1c-2ccc2c1CCCC2(C)C` [TANSHINONE IIA]: the IC50 stood at 89.1 µM.

As to `Cc1cccc2c3c(ccc12)C1=C(C(=O)C3=O)[C@@H](C)CO1` [DIHYDROTANSHINONE I], it took 14.4 µM to reach half-maximal inhibition (IC50).

The target of the next assay is Replicase polyprotein 1a (Severe acute respiratory syndrome-related coronavirus) (UniProt P0C6U8). As to conditions: 1 to 100 uM.
With `CC(C)C1=Cc2ccc3c(c2C(=O)C1=O)CCCC3(C)C` [MILTIRONE], the inhibition result was “inactive”.

On to `Cc1coc2c1C(=O)C(=O)c1c-2ccc2c1CCCC2(C)C` [TANSHINONE IIA], for which the inhibition entry was “inactive”.

`Cc1cccc2c3c(ccc12)C1=C(C(=O)C3=O)[C@@H](C)CO1` [DIHYDROTANSHINONE I]: the inhibition entry was “inactive”.

In a further assay the target is Protease (Human immunodeficiency virus 1, UniProt Q9YQ12). The assay is described as follows: Inhibition of Human immunodeficiency virus 1 protease preincubated for 10 mins by FRET assay.
Sequence of Protease (Q9YQ12 whole entry): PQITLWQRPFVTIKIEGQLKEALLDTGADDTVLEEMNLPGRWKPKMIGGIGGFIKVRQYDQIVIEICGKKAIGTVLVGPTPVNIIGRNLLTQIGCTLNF
Conditions: not given
In turn, `CC(C)C1=Cc2ccc3c(c2C(=O)C1=O)CCCC3(C)C` [MILTIRONE] showed an IC50 of 148 µM.

Consider `Cc1coc2c1C(=O)C(=O)c1c-2ccc2c1CCCC2(C)C` [TANSHINONE IIA], for which it took 59.2 µM to reach half-maximal inhibition (IC50).

For the compound `Cc1cccc2c3c(ccc12)C1=C(C(=O)C3=O)[C@@H](C)CO1` [DIHYDROTANSHINONE I], the midpoint of inhibition, the IC50, lay at 50.6 µM.

A further assay has as its target Replicase polyprotein 1a (Severe acute respiratory syndrome-related coronavirus) (UniProt P0C6U8). As to conditions: TDE = time-dependent effect.
Turning to `CC(C)C1=Cc2ccc3c(c2C(=O)C1=O)CCCC3(C)C` [MILTIRONE], the inhibition entry was “tde”.

Take `Cc1coc2c1C(=O)C(=O)c1c-2ccc2c1CCCC2(C)C` [TANSHINONE IIA]: the inhibition entry was “tde”.

For `Cc1cccc2c3c(ccc12)C1=C(C(=O)C3=O)[C@@H](C)CO1` [DIHYDROTANSHINONE I], the inhibition entry was “tde”.

A further assay addresses T2, Papain (Carica papaya) (UniProt P00784).
T2 sequence (whole entry): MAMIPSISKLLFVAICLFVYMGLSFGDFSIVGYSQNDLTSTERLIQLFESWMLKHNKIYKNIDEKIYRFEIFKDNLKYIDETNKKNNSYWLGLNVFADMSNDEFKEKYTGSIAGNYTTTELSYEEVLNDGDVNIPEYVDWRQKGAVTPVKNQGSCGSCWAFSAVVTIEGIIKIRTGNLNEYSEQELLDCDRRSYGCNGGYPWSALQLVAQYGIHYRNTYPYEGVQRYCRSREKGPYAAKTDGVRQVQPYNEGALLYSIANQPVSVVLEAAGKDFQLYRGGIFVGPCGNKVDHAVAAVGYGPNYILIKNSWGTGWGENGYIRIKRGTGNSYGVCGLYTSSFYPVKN
Description: Inhibition of papaya papain using N-alpha-benzoyl-L-arginine-pnitroanilide as substrate at 200 uM after 5 mins.
Conditions: not given
In the case of `Cc1cccc2c3c(ccc12)C1=C(C(=O)C3=O)[C@@H](C)CO1` [DIHYDROTANSHINONE I], the inhibition entry was “inactive”.

In the next assay the target is T3, Papain (Carica papaya, UniProt P00784).
T3 sequence (P00784 whole entry): T2 sequence (whole entry)
Description: Inhibition of papaya papain using N-alpha-benzoyl-L-arginine-pnitroanilide as substrate after 5 mins.
Conditions: not given
Consider `CC(C)C1=Cc2ccc3c(c2C(=O)C1=O)CCCC3(C)C` [MILTIRONE], for which the IC50 was found to be 88 µM.

For the compound `Cc1coc2c1C(=O)C(=O)c1c-2ccc2c1CCCC2(C)C` [TANSHINONE IIA], the midpoint of inhibition, the IC50, lay at 122 µM.

Tested on in another assay: not listed separately
The assay is described as follows: Inhibition of chymotrypsin using N-benzoyl-L-tyrosine ethyl ester as substrate assessed as benzoyl-tyrosine production measured every 10 seconds for 6 mins.
Conditions: not given
Regarding `CC(C)C1=Cc2ccc3c(c2C(=O)C1=O)CCCC3(C)C` [MILTIRONE], the IC50 is 139 µM.

For `Cc1coc2c1C(=O)C(=O)c1c-2ccc2c1CCCC2(C)C` [TANSHINONE IIA], the IC50 is 68.3 µM.

The next assay addresses T1, Replicase polyprotein 1a. As to conditions: read-out: Ki(app).
Take `CC(C)C1=Cc2ccc3c(c2C(=O)C1=O)CCCC3(C)C` [MILTIRONE]: the Ki was 21.5 µM.

Regarding `Cc1coc2c1C(=O)C(=O)c1c-2ccc2c1CCCC2(C)C` [TANSHINONE IIA], the Ki was 11.2 µM.

Regarding `Cc1cccc2c3c(ccc12)C1=C(C(=O)C3=O)[C@@H](C)CO1` [DIHYDROTANSHINONE I], the Ki turned out to be 11.2 µM.

The target in the next assay is Replicase polyprotein 1a (Severe acute respiratory syndrome-related coronavirus) (UniProt P0C6U8).
Conditions: not given
The source holds these as a separate data set.
With `CC(C)C1=Cc2ccc3c(c2C(=O)C1=O)CCCC3(C)C` [MILTIRONE], the inhibition entry was “Active”.

Another assay concerns the target T1, Replicase polyprotein 1a.
Conditions: not given
The source holds these as a separate data set.
On to `CC(C)C1=Cc2ccc3c(c2C(=O)C1=O)CCCC3(C)C` [MILTIRONE], for which the IC50 was found to be 30 µM.

Turning to `Cc1coc2c1C(=O)C(=O)c1c-2ccc2c1CCCC2(C)C` [TANSHINONE IIA], the midpoint of inhibition, the IC50, lay at 1.6 µM.

The compound `Cc1cccc2c3c(ccc12)C1=C(C(=O)C3=O)[C@@H](C)CO1` [DIHYDROTANSHINONE I] came in with an IC50 of 4.9 µM.

Tested on in the next assay: not listed separately
The assay is described as follows: Inhibition of chymotrypsin using N-benzoyl-L-tyrosine ethyl ester as substrate assessed as benzoyl-tyrosine production at 200 uM measured every 10 seconds for 6 mins.
Conditions: not given
`Cc1cccc2c3c(ccc12)C1=C(C(=O)C3=O)[C@@H](C)CO1` [DIHYDROTANSHINONE I]: the inhibition result is “inactive”.

For a further assay, the target named is T1, Replicase polyprotein 1a.
Conditions: not given
This is another data set of the same source.
Consider `CC(C)C1=Cc2ccc3c(c2C(=O)C1=O)CCCC3(C)C` [MILTIRONE], for which the IC50 is 60.2 µM.

With `Cc1cccc2c3c(ccc12)C1=C(C(=O)C3=O)[C@@H](C)CO1` [DIHYDROTANSHINONE I], the concentration for half-maximal inhibition (IC50) worked out at 1.2 µM.

The target in a further assay is Replicase polyprotein 1a (Severe acute respiratory syndrome-related coronavirus) (UniProt P0C6U8).
Conditions: not given
This is another data set of the same source.
Consider `CC(C)C1=Cc2ccc3c(c2C(=O)C1=O)CCCC3(C)C` [MILTIRONE], for which the inhibition result is “Active”.

On to `Cc1coc2c1C(=O)C(=O)c1c-2ccc2c1CCCC2(C)C` [TANSHINONE IIA], for which the inhibition result is “Active”.

Take `Cc1cccc2c3c(ccc12)C1=C(C(=O)C3=O)[C@@H](C)CO1` [DIHYDROTANSHINONE I]: the inhibition result was “Active”.

(Values after ChEMBL document CHEMBL2146458, “Tanshinones as selective and slow-binding inhibitors for SARS-CoV cysteine proteases” (Bioorg Med Chem, 2012).)
